`CCCOCCCN1CN(C)/C(=N/[N+](=O)[O-])N(Cc2ccc(Cl)nc2)C1`: the melting point lay within 70 to 72 °C.
The figure for `CN/C(=N/[N+](=O)[O-])NCc1cnc(Cl)c(Cl)c1` is 173 to 174 °C.

The values above are taken from patent US6462043B1 (dated 2002).
